Test results taken from patent US20110086916A1, “INTERVAL THERAPY FOR THE TREATMENT OF TINNITUS” (MERZ PHARMA GmbH & CO. KGaA, priority 2007, published 2011).

Test system: subjects with subjective tinnitus of at least moderate severity
Test: Double blind placebo controlled pilot trial of neramexane for treatment of tinnitus (TBF-12 score)
Format: in vivo, human
Conditions: for Change in the TBF-12 total score from baseline, Change LSMean: ANCOVA
Experimental: Visit 1 (screening): After signing the consent form, the subject underwent a physical examination and clinical laboratory testing. Patient eligibility for the study was evaluated via a check of inclusion/exclusion criteria. An initial Tinnitus Interview was conducted. The subject also completed a Tinnitus-Beeinträchtigungs-Fragebogen (TBF-12) (i.e., a 12-item German modified and validated version (Greimel K V et al., Tinnitus-Beeinträchtigungs-Fragebogen (TBF-12). Manual. Frankfurt am Main: Swets & Zeitlinger B.V.; 2000) of the 25-item Tinnitus Handicap Inventory or THI (Newman C W, et al. Development of the Tinnitus Handicap Inventory. Arch Otolaryngol Head Neck Surg 1996; 122(2): 143-148; Newman C W, et al. Psychometric adequacy of the Tinnitus Handicap Inventory (THI) for evaluating treatment outcome. J Am Acad Audiol 1998; 9(2): 153-160.)), a Hospital Anxiety and Depression Scale—Depression Subscale (HADS-D) Questionnaire and a Hyperacusis (Geräuschüberempfindlichkeit-Fragenbogen (GÜF)) Questionnaire (if applicable).
Visit 2 (baseline): The subject was asked about adverse events and changes in concomitant medication/disease, which events/changes were documented. The subject was evaluated for study eligibility based on a review of the inclusion/exclusion criteria. Trial procedures as well as allowed and forbidden concomitant medications were reviewed with the subject. An initial Tinnitus Interview was conducted. The subject also completed a TBF-12, HADS-D Questionnaire and GÜF Questionnaire (if applicable). The subject was enrolled in the study and study medication (placebo or neramexane) was dispensed as described below.
Visit 3 (Week 4): This visit occurred at the end of the 4-week up-titration sequence. The subject was asked about adverse events and changes in concomitant medication/disease, which events/changes were documented. A follow-up Tinnitus Interview was conducted. The subject also completed a TBF-12, HADS-D Questionnaire and GÜF Questionnaire (if applicable). Medication compliance was assessed, and medication for the next 4 weeks was dispensed as described below.
Visit 4 (Week 8): This visit occurred at the end of the first 4-week fixed-dose double-blind treatment period. The subject was asked about adverse events and changes in concomitant medication/disease, which changes are documented. Blood samples were collected in order to determine neramexane pre-dose concentration. A follow-up Tinnitus Interview was conducted. The subject also completed a TBF-12, HADS-D Questionnaire and GÜF Questionnaire (if applicable). Medication compliance was assessed and, medication for the next 4 weeks was dispensed as described below.
Visit 5 (Week 12): This visit occurred at the end of the second 4-week fixed-dose double-blind treatment period. The subject was asked about adverse events and changes in concomitant medication/disease, which changes are documented. A follow-up Tinnitus Interview was conducted. The subject also completed a TBF-12, HADS-D Questionnaire and GÜF Questionnaire (if applicable). Medication compliance was assessed and, medication for the next 4 weeks was dispensed as described below.
Visit 6 (Week 16, end of treatment): This visit occurred at the end of the 12-week fixed-dose double-blind treatment period. The subject was asked about adverse events and changes in concomitant medication/disease, which changes are documented. A clinical laboratory evaluation was performed. A follow-up Tinnitus Interview was conducted, and the subject completed a TBF-12, HADS-D Questionnaire and GÜF Questionnaire (if applicable). Pure-tone audiometry (air conduction) was also conducted.
Visit 7 (Week 20): This visit occurred at the end of the 4-week follow-up period after the last study medication dose. Review of concomitant medications as well as the occurrence of adverse events since the last visit is conducted with subject. […]

[1] = 25 mg/d, Week 4, ITT-LOCF, n=106
[2] = 25 mg/d, Week 8, ITT-LOCF, n=106
[3] = 25 mg/d, Week 12, ITT-LOCF, n=106
[4] = 25 mg/d, Week 16 (end of treatment), ITT-LOCF, n=106
[5] = 25 mg/d, Week 20 (Follow-up, 4 weeks without treatment), ITT-LOCF, n=100
[6] = 50 mg/d, Week 4, ITT-LOCF, n=106
[7] = 50 mg/d, Week 8, ITT-LOCF, n=106
[8] = 50 mg/d, Week 12, ITT-LOCF, n=106
[9] = 50 mg/d, Week 16 (end of treatment), ITT-LOCF, n=106
[10] = 50 mg/d, Week 20 (Follow-up, 4 weeks without treatment), ITT-LOCF, n=95
[11] = 75 mg/d, Week 4, ITT-LOCF, n=99
[12] = 75 mg/d, Week 8, ITT-LOCF, n=99
[13] = 75 mg/d, Week 12, ITT-LOCF, n=99
[14] = 75 mg/d, Week 16 (end of treatment), ITT-LOCF, n=99
[15] = 75 mg/d, Week 20 (Follow-up, 4 weeks without treatment), ITT-LOCF, n=89

## CC1(C)CC(C)(C)CC(C)(N)C1.CS(=O)(=O)O [neramexane mesylate]
After 16-week double-blind treatment (Visit 6), final daily doses of 50 or 75 mg, distinct from placebo or low-dose (25 mg) groups
  Improvement of tinnitus as measured by the TBF-12: clear improvement of their tinnitus
End of the 4-week wash-out (Week 20, Visit 7), 50 mg
  Differences in TBF-12 improvement between the 50 mg and the placebo group: reached statistical significance
Subjects previously treated with either 50 or 75 mg
  Improvement of tinnitus during 4-week wash-out period without any medication: further relevant improvement of their tinnitus

## CC1(C)CC(C)(C)CC(C)(N)C1 [Neramexane, 1-amino-1,3,3,5,5-pentamethylcyclohexane]
25 mg/d, Week 4, ITT-LOCF
  Change in the TBF-12 total score from baseline, Change LSMean: −0.8
[1]
  Change in the TBF-12 total score from baseline, Change Mean ± SD: −1.0 ± 2.6
  TBF-12 total score, Actual Mean ± SD: 13.4 ± 4.5
25 mg/d, Week 4, ITT-LOCF, 95% CI [−0.8, 0.7], p-value 0.875
  Change in TBF-12 total score, Neramexane - Placebo LSMean Diff. ± SE: −0.1 ± 0.4
25 mg/d, Week 8, ITT-LOCF
  Change in the TBF-12 total score from baseline, Change LSMean: −1.5
[2]
  Change in the TBF-12 total score from baseline, Change Mean ± SD: −1.7 ± 2.9
  TBF-12 total score, Actual Mean ± SD: 12.7 ± 4.9
25 mg/d, Week 8, ITT-LOCF, 95% CI [−0.5, 1.2], p-value 0.429
  Change in TBF-12 total score, Neramexane - Placebo LSMean Diff. ± SE: 0.3 ± 0.4
25 mg/d, Week 12, ITT-LOCF
  Change in the TBF-12 total score from baseline, Change LSMean: −1.4
[3]
  Change in the TBF-12 total score from baseline, Change Mean ± SD: −1.6 ± 3.4
  TBF-12 total score, Actual Mean ± SD: 12.8 ± 5.0
25 mg/d, Week 12, ITT-LOCF, 95% CI [−0.3, 1.6], p-value 0.182
  Change in TBF-12 total score, Neramexane - Placebo LSMean Diff. ± SE: 0.6 ± 0.5
25 mg/d, Week 16 (end of treatment), ITT-LOCF
  Change in the TBF-12 total score from baseline, Change LSMean: −1.8
[4]
  Change in the TBF-12 total score from baseline, Change Mean ± SD: −2.0 ± 3.4
  TBF-12 total score, Actual Mean ± SD: 12.4 ± 5.3
25 mg/d, Week 16 (end of treatment), ITT-LOCF, 95% CI [−0.5, 1.5], p-value 0.359
  Change in TBF-12 total score, Neramexane - Placebo LSMean Diff. ± SE: 0.5 ± 0.5
25 mg/d, Week 20 (Follow-up), ITT-LOCF, 95% CI [−0.6, 1.6], p-value 0.336
  Change in TBF-12 total score, Neramexane - Placebo LSMean Diff. ± SE: 0.5 ± 0.6
25 mg/d, Week 20 (Follow-up, 4 weeks without treatment), ITT-LOCF
  Change in the TBF-12 total score from baseline, Change LSMean: −2.0
[5]
  Change in the TBF-12 total score from baseline, Change Mean ± SD: −2.1 ± 3.4
  TBF-12 total score, Actual Mean ± SD: 12.3 ± 5.5
50 mg/d, Week 4, ITT-LOCF
  Change in the TBF-12 total score from baseline, Change LSMean: −1.4
[6]
  Change in the TBF-12 total score from baseline, Change Mean ± SD: −1.4 ± 3.2
  TBF-12 total score, Actual Mean ± SD: 13.0 ± 4.7
50 mg/d, Week 4, ITT-LOCF, 95% CI [−1.3, 0.1], p-value 0.110
  Change in TBF-12 total score, Neramexane - Placebo LSMean Diff. ± SE: −0.6 ± 0.4
50 mg/d, Week 8, ITT-LOCF
  Change in the TBF-12 total score from baseline, Change LSMean: −2.1
[7]
  Change in the TBF-12 total score from baseline, Change Mean ± SD: −2.2 ± 3.3
  TBF-12 total score, Actual Mean ± SD: 12.3 ± 4.8
50 mg/d, Week 8, ITT-LOCF, 95% CI [−1.1, 0.5], p-value 0.488
  Change in TBF-12 total score, Neramexane - Placebo LSMean Diff. ± SE: −0.3 ± 0.4
50 mg/d, Week 12, ITT-LOCF
  Change in the TBF-12 total score from baseline, Change LSMean: −2.5
[8]
  Change in the TBF-12 total score from baseline, Change Mean ± SD: −2.6 ± 3.8
  TBF-12 total score, Actual Mean ± SD: 11.8 ± 4.9
50 mg/d, Week 12, ITT-LOCF, 95% CI [−1.4, 0.5], p-value 0.357
  Change in TBF-12 total score, Neramexane - Placebo LSMean Diff. ± SE: −0.4 ± 0.5
50 mg/d, Week 16 (end of treatment), ITT-LOCF
  Change in the TBF-12 total score from baseline, Change LSMean: −3.1
[9]
  Change in the TBF-12 total score from baseline, Change Mean ± SD: −3.2 ± 4.1
  TBF-12 total score, Actual Mean ± SD: 11.2 ± 5.1
50 mg/d, Week 16 (end of treatment), ITT-LOCF, 95% CI [−1.8, 0.2], p-value 0.098
  Change in TBF-12 total score, Neramexane - Placebo LSMean Diff. ± SE: −0.8 ± 0.5
50 mg/d, Week 20 (Follow-up), ITT-LOCF, 95% CI [−2.4, −0.2], p-value 0.021
  Change in TBF-12 total score, Neramexane - Placebo LSMean Diff. ± SE: −1.3 ± 0.6
50 mg/d, Week 20 (Follow-up, 4 weeks without treatment), ITT-LOCF
  Change in the TBF-12 total score from baseline, Change LSMean: −3.8
[10]
  Change in the TBF-12 total score from baseline, Change Mean ± SD: −3.9 ± 4.4
  TBF-12 total score, Actual Mean ± SD: 10.4 ± 5.3
75 mg/d, Week 4, ITT-LOCF
  Change in the TBF-12 total score from baseline, Change LSMean: −1.6
[11]
  Change in the TBF-12 total score from baseline, Change Mean ± SD: −1.7 ± 2.7
  TBF-12 total score, Actual Mean ± SD: 12.2 ± 4.3
75 mg/d, Week 4, ITT-LOCF, 95% CI [−1.6, −0.1], p-value 0.026
  Change in TBF-12 total score, Neramexane - Placebo LSMean Diff. ± SE: −0.9 ± 0.4
75 mg/d, Week 8, ITT-LOCF
  Change in the TBF-12 total score from baseline, Change LSMean: −1.9
[12]
  Change in the TBF-12 total score from baseline, Change Mean ± SD: −2.0 ± 3.3
  TBF-12 total score, Actual Mean ± SD: 11.9 ± 4.5
75 mg/d, Week 8, ITT-LOCF, 95% CI [−1.0, 0.7], p-value 0.813
  Change in TBF-12 total score, Neramexane - Placebo LSMean Diff. ± SE: −0.1 ± 0.4
75 mg/d, Week 12, ITT-LOCF
  Change in the TBF-12 total score from baseline, Change LSMean: −2.4
[13]
  Change in the TBF-12 total score from baseline, Change Mean ± SD: −2.5 ± 3.5
  TBF-12 total score, Actual Mean ± SD: 11.4 ± 4.9
75 mg/d, Week 12, ITT-LOCF, 95% CI [−1.3, 0.6], p-value 0.457
  Change in TBF-12 total score, Neramexane - Placebo LSMean Diff. ± SE: −0.4 ± 0.5
75 mg/d, Week 16 (end of treatment), ITT-LOCF
  Change in the TBF-12 total score from baseline, Change LSMean: −2.8
[14]
  Change in the TBF-12 total score from baseline, Change Mean ± SD: −2.9 ± 3.9
  TBF-12 total score, Actual Mean ± SD: 11.0 ± 5.1
75 mg/d, Week 16 (end of treatment), ITT-LOCF, 95% CI [−1.6, 0.5], p-value 0.289
  Change in TBF-12 total score, Neramexane - Placebo LSMean Diff. ± SE: −0.5 ± 0.5
75 mg/d, Week 20 (Follow-up), ITT-LOCF, 95% CI [−1.8, 0.5], p-value 0.244
  Change in TBF-12 total score, Neramexane - Placebo LSMean Diff. ± SE: −0.7 ± 0.6
75 mg/d, Week 20 (Follow-up, 4 weeks without treatment), ITT-LOCF
  Change in the TBF-12 total score from baseline, Change LSMean: −3.2
[15]
  Change in the TBF-12 total score from baseline, Change Mean ± SD: −3.3 ± 3.6
  TBF-12 total score, Actual Mean ± SD: 10.5 ± 4.9
After drug withdrawal
  Capability for improvement of tinnitus after withdrawal (conclusion of pilot trial): sustained improvement of tinnitus even after the drug is withdrawn
Subjects who had received low-dose (25 mg)
  Further improvement of tinnitus during 4-week wash-out period without any medication: not reported
